Test results from patent US9845318B2, “Class of near infrared optical probes for biological applications” (The University of Akron, priority 2012, dated 2017).
Structures can show the parent of a compound that is named as a salt. Values belong to the molecule of their own block, whether it stands above or below them.

Key:
[1] = tested on: zebrafish; experiment: Imaging of Zn^2+ in developing zebrafish, probe added to fish tank water; type: in vivo
Excerpt: The most attractive application for zinc probes is sensing Zn^2+ in living organisms. Our ability to discover the fundamental roles of Zn^2+ is dependent on the tools available to detect the Zn^2+ population/concentration in living biological systems. Zebrafish has recently become an important model organism for the study of vertebrate imaging. This is because the embryos of zebrafish are transparent, allowing for clear observation of their organs without the need for dissection. The optical transparancy of zebrafish, therefore, provides a convenient organism for detection of ions by fluorescence microscopy. […] Encouraged by the cell permeability (FIG. 20), Zinhbo-5 was thus examined in developing zebrafish of various stages by adding Zinhbo-5 to fish tank water (treatment lasted for one hour at room temperature). […] However, there were more labeling in other parts of the body in the Zn^2+ treated larvae (FIG. 22 at I). […] Herein the in vivo recognition of the zinc-rich organ in zebrafish larva could be seen with higher image quality by using Zinhbo-5. […] The in vivo results with sensor Zinhbo-5 are somewhat different in light of the previously reported data where zinc was detected using fluorescent sensors in zebrafish. In those studies, fluorescent labeling was concentrated in the heart ventricle of embryos (50 hpf), and scattered throughout the body in larvae (4-5-day old). Whereas Zinhbo-5 labeling is confined mainly to the nose and neuromasts of the lateral line system during this period.
All images show lateral views of live embryos (anterior to the left and dorsal up). The labeled cells are scattered throughout the embryo at 17 hpf (panels A and B). Panel B is a higher magnification of the mid-trunk region of the embryo shown in panel A. Arrowheads in panel B indicate several labeled cells. Zinhbo-5 labeling becomes more restricted as development proceeds. At 50 hpf, Most labeled cells are concentrated in the nose neuromasts of the lateral line system (panels C-F). Arrowheads and asterisks in panels C and D point to some neuromasts in the posterior lateral line system on this side and the other side of the body trunk, respectively. Panels E and F are higher magnifications of the head region of the labeled embryos. Embryos in panels D and F had been treated with Zn2+ before Zinhbo-5 labeling. (Abbreviations: io2, infraorbital line neuromast 2; ml1, middle line neuromast 1; n, nose; o1 and o2, otic lateral line neuromasts 1 and 2; po1, postorbital neuromast 1; so2, supraorbital line neuromast 2).
All images show lateral views (anterior to the left and dorsal up) of live zebrafish larvae. Panels A-C are low magnification images showing almost the entire fish; panels D-F show higher magnification of the head region, while panels G-J show higher magnification of the mid-trunk region of the fish. Panels A, D and G are from larvae labeled with Zinhbo-5. Panels B, E and I are from larvae that had been treated with zinc before exposed to Zinhbo-5. Panels C, F and J are from larvae that were simultaneously treated with Zinhbo-5 and TPEN. […] (Abbreviations: io1 and io3, infraorbital line neuromasts 1 and 3; so1, supraorbital line neuromast 1; ye, yolk extension. Other abbreviations are the same as in FIG. 9).

[2] = tested on: Hela cells; experiment: Fluorescence imaging of intracellular Zn^2+ in Hela cells; type: cell-based
Method: The Zinhbo-5 sensor was applied on Hela cells, in order to examine whether the probe could be useful in living systems under a confocal laser scanning microscopy. […] After three times washing with PBS buffer, the cells were incubated with ZnCl2 (10 μM) in the medium for another 30 min at 37° C., and the fluorescence in living cells was much brighter (FIG. 20, at D).
Hela cells were cultured in DEME (Invitrogen) supplemented with 10% FCS (Invitrogen). One day before imaging, cells were seeded in 24-well flat-bottomed plates. The next day, the Hela cells were incubated with 10 μM sensor Zinhbo-5 for 0.5 h at 37° C. under 5% CO2 and then washed with phosphate-buffered saline (PBS) three times before incubating with 10 μM ZnCl2 for another 0.5 h, cells were rinsed with PBS three times again, then the fluorescence imaging of intracelluar Zn2+ was observed under Nikon eclipase TE2000-5 inverted fluorescence microscopy with a 32× objective lens. The Hela cells only incubated with 10 μM Zinhbo-5 for 0.5 hour at 37° C. under 5% CO2 was as a control. For all images, the microscope settings, such as brightness, contrast, and exposure time were held constant to compare the relative intensity of intracellular Zn^2+ fluorescence.

[3] = Fluorescence response of the sensor in solution upon addition of Zn^2+; type: physicochemical
Excerpt: Free ligand Zinhbo-5 gave only weak green fluorescence at 520 and 560 nm. The green fluorescence signal was increased gradually upon addition of Zn^2+ (FIGS. 12 and 13). In addition, a new emission peak at ˜763 nm occurred, which has a very large Stokes shift (˜285 nm). The new emission band was attributed to the keto form arising from the ESIPT process (FIGS. 14 and 15). […] This is because the substituent at the 5-position of benzoxazole unit exerts less electronic interferences to the anticipated ESIPT process (as shown in structure 5). […] The stronger ESIPT from 9 could be associated with the increased rigidity, when two ligands were assembled together via chelation with Zn^2+ cation.
(§1) The NIR emission intensity at ˜710 nm was linearly proportional to the Zn^2+ concentration (linearly dependent coefficient: R^2=0.9982) (FIGS. 18 and 19). […] The association constants K11 and K12 were determined by a nonlinear least-squares analysis of fluorescence intensity versus Zn^2+ ion concentration to be 3.21×10^5 M^−1 and 3.88×10^10 M^−2, respectively.
All the solvents were of analytic grade. The salt used in stock solutions of metal ions were Zn(OAc)2.2H2O, Co(OAc)2.4H2O, Ni(OAc)2.4H2O, Cu(OAc)2.H2O, MgSO4, Cd(OAc)2.6H2O, Mn(OAc)2.4H2O, FeCl2. 4H2O, CaCl2, Na2SO4, Hg(OAc)2, AgNO3, Pb(OAc)2.3H2O, KNO3. Water used was ultra filter deionized and purchased from fisher. HEPES (2-[4-(2-hydroxyethyl)-1-piperazinyl]-ethanesulfonic acid) was from Fisher. NMR spectra were collected on a Varian 300 Gemini spectrometer. Mass spectrometric data were obtained on a HP1100LC/MSD mass spectrometry. UV-Vis spectra were acquired on a Hewlett-Packard 8453 diode-array spectrometer. Fluorescence spectra were obtained on a HORIBA Jobin Yvon NanoLog spectrometer. All pH measurements were made with a model RS232 meter. The fluorescence quantum yield were obtained using quinine sulfate as the standard (Φ=0.53, 0.1 M H2SO4). Cell fluorescence imaging were obtained on a Nikon Eclipse TE2000-5 fluorescence microscope, and analyzed by MetaFluor software (Universal Imaging Corp.).

[4] = Determination of association constant by fluorescence titration with Zn^2+; type: binding
Method: as §1
An approximate linear fit formula is used to calculate the single association constant Kass1 and Kass2:
[formula] where n is the number of equivalents of the added metal ions, F0 is the fluorescence intensity of the free sensor, and F1 is the fluorescence intensity in the presence of excess cation, C0 is the initial concentration of Zinhbo-5. Kass1 and Kass2 can be obtained by a linear analysis of (F1−F)(x) versus

[5] = 0.1 M H2SO4; cited from earlier work

cell permeability ([2]; living cells): cell-permeable
new emission peak upon addition of Zn^2+ ([3]; FIGS. 12 and 13, keto form ESIPT emission): ~763 nm
fluorescence quantum yield Φfl upon addition of one equivalent Zn2+ ([3]; HEPES buffer solution with 50% EtOH, 1 equivalent Zn2+): 0.17
fluorescence quantum yield Φfl of free ligand ([3]; HEPES buffer solution with 50% EtOH, no Zn^2+): 0.081
fluorescence enhancement upon zinc binding (green emission) ([3]; aqueous solution): about 14 fold
NIR emission strength upon zinc binding, comparison ([3]; at ~763 nm, THF, excitation 480 nm (FIG. 14), Zinhbo-5 vs Zinhbo-1, 9 vs crystal 10): quite stronger NIR emission
Stokes shift of the new emission peak ([3]; peak at ~763 nm): ~285 nm
Kd (sensitivity for Zn^2+) ([4]; aqueous solution): 2.58 nM^2
Structure (SMILES): CC(C)(C)c1ccc2oc(-c3cc(O)c(-c4nc5c(CN(Cc6ccccn6)Cc6ccccn6)cccc5o4)cc3O)nc2c1 [Zinhbo-5]
distribution of labeled zinc-concentrated cells ([1]; 17 hpf, one hour treatment at room temperature): distributed throughout the embryos
distribution of labeled zinc-concentrated cells ([1]; 50 hpf and 72 hpf): mainly located in the nose and neuromasts of the lateral line system
labeling pattern in older larvae ([1]; 82 hpf): remained similar
labeling in lateral line structures, exogenous Zn^2+ treated vs untreated larvae ([1]; 82 hpf, Zn^2+ 20 μM): no obvious difference
labeling in larvae treated with TPEN ([1]; 82 hpf, zinc chelator TPEN): almost completely eliminated
fluorescence inside living cells, probe only ([2]; 10 μM probe, 30 min, 37° C.): very weak fluorescence
cell viability in bright-field transmission image ([2]; cells treated with probe and Zn^2+): viable throughout the imaging experiments
toxicity to the cell culture ([2]; imaging conditions): primarily nontoxic
fluorescence in living cells after incubation with ZnCl2 ([2]; then ZnCl2 (10 μM), 30 min, 37° C.): much brighter
emission intensity after subsequent addition of TPEN ([2]; zinc chelator TPEN added after Zn^2+): reverted the emission intensity to that of the zinc-free system
association constant K12 / overall association constant Kass ([4]; 2:1 host-guest complex, fluorescence at 710 nm): 3.88×10^10 M^−2
association constant Kass2 ([4]; fluorescence at 710 nm): 121000 M⁻¹
association constant K11 / Kass1 ([4]; fluorescence intensity versus Zn^2+ concentration, 710 nm): 321000 M⁻¹

Structure (SMILES): C=C[C@H]1C[N@@]2CC[C@H]1C[C@H]2[C@H](O)c1ccnc2ccc(OC)cc12 [quinine sulfate]
fluorescence quantum yield of standard [5]: 0.53
